Measurements as given in publication PMC11678221, “Design, Synthesis and Molecular Modeling of Pyrazolo[1,5-a]pyrimidine Derivatives as Dual Inhibitors of CDK2 and TRKA Kinases with Antiproliferative Activity” (Pharmaceuticals, 2024).
Blank lines part the entries; values can stand above or below the compound they belong to.

Assays:
CDK2/CyclinA2 = target: T1, CDK2/CyclinA2 (Homo sapiens, UniProt P24941); assay: CDK2 inhibition assay (BPS Bioscience kit, Kinase-Glo Max luminescence); format: biochemical; details: four concentrations 0.01, 0.1, 1, 10 µM, triplicate, mean ± SD, read-out: Enzyme Inhibition IC50 CDK-2
T1 construct: purchased BPS Bioscience, San Diego, CA, USA 79599

RFX 393 [1] = assay: NCI 60 cell line single-dose growth inhibition (SRB); format: cell-based, human; details: 10 µM; kidney carcinoma cell line RFX 393
Protocol: (§1) The developed pyrazolopyrimidines 6a–t, 11a–g, and 12 were evaluated by the National Cancer Institute (NCI) Developmental Therapeutic Program https://dtp.cancer.gov/ (accessed on 17 July 2022) for their prospective efficacy of growth-inhibitory activity verses 60 different carcinoma cell lines of NCI. Human carcinoma cell lines originated across nine distinct cancer types: central nervous system, cancer of the blood, colorectal, breast, ovary, kidney, melanoma, prostatic, and lung carcinomas. All compounds have been assessed with a concentration of 10 µM versus the collection of 60 diverse cancer cell lines. Outcomes are expressed as percentages of growth inhibition (GI %) for the evaluated compounds versus the complete set of cell lines (Supplementary Materials).
(§2) Performed by US National Cancer Institute according to previously reported standard procedure as follows: Cells were plated into 96-well microtiter plates with each well equipped with 100 µL of culture medium at densities between 5000 and 40,000 cells per well, based on the specific cell line’s doubling time. After seeding, incubation was carried out at 37 °C in 5% carbon dioxide, 95% […] environment with 100% relative humidity for one day to permit the cells to attach before proceeding to treatment with the tested compounds. To determine the cell count at drug exposure time of (Tz), two plates were per fixed cell line using trichloroacetic acid after the 24 h incubation period.
(§3) The studied compounds were initially dispersed in dimethyl sulfoxide at a concentration 400 times exceeding the intended final concentration and subsequently frozen until required. Before the application, an aliquot of the stock solution was warmed to room temperature and diluted in a complete medium containing 50 µg per mL of gentamicin to attain twice the intended concentration. Subsequently, 100 µL of the diluted compound was introduced to every well holding 100 µL of the medium to achieve the intended concentration. After the compound was added, the plates were incubated under the same conditions for a further 48 h at 37 °C.
(§4) For the adherent cells, the experiment was concluded via the introduction of 50 µL of cold 50% (w/v) trichloroacetic acid into each well, resulting in a last TCA concentration for 10%. Then, the cell plates were incubated at 4 °C for about one hour to fix the cells.
(§5) After the removal of the supernatant, the plates were washed with tap water five times before being dried using air. For the suspension cells, a similar process was followed, but 50 µL of 80% TCA was used, yielding a final TCA concentration of 16% for the cells fixed in the well’s bottom.
(§6) Following cell fixation, 100 µL of the 0.4% (wight/volume) solution of sulforhodamine B with acetic acid at a concentration of 1% was introduced to all individual wells, and then incubated at ambient temperature for 10 min. The plates were washed five times with 1% acetic acid to eliminate any residual dye, followed by air-drying. Next, […] Tris base was added to disperse the bonded dye, and, using an automatic microplate reader, the absorbance was determined at 515 nm.
(§7) The percentage of growth inhibition measurement depended on the absorbance values at the baseline time point […], as well as during the control growth phase (C) and the test growth phase (Ti). When Ti was greater than or equal to Tz, the calculation formula used [(Ti − Tz)/(C − Tz)] × 100. If Ti was less than Tz, the formula used was (Ti − Tz)/Tz × 100.

HOP-62 = assay: as above; format: cell-based, human; details: 10 µM; lung carcinoma HOP-62
Protocol: as §1, §2, §3, §4, §5, §6, §7

TrkA = target: T2, TrkA (Homo sapiens, UniProt P04629); assay: TRKA inhibition assay (BPS Bioscience kit, Kinase-Glo Max luminescence); format: biochemical; details: four concentrations 0.01, 0.1, 1, 10 µM, triplicate, mean ± SD, read-out: Enzyme Inhibition IC50 TRK-A
T2 construct: purchased BPS Bioscience, San Diego, CA, USA 79548
T2 sequence (P04629 33-796): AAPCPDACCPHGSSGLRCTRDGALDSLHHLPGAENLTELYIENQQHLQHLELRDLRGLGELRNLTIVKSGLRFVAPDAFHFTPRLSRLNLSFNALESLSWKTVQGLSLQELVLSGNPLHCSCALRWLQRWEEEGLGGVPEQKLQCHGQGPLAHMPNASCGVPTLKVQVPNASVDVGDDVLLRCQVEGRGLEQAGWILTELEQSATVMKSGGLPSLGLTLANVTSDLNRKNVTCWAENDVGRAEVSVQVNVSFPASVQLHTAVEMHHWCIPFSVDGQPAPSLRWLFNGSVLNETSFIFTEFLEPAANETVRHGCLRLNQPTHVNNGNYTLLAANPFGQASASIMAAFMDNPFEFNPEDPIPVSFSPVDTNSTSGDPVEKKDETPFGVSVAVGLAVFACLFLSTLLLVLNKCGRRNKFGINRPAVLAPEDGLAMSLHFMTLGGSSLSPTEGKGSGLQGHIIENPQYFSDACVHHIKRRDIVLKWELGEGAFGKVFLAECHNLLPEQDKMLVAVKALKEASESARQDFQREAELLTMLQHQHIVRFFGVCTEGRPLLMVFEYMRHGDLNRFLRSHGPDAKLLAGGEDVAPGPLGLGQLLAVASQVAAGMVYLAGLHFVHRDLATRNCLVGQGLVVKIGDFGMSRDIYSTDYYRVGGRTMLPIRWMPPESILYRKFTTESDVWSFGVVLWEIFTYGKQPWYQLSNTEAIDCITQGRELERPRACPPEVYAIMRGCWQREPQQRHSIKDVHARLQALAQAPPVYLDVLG

HOP-92 = assay: NCI 60 cell line single-dose growth inhibition (SRB); format: cell-based, human; details: 10 µM; lung carcinoma HOP-92
Protocol: as §1, §2, §3, §4, §5, §6, §7

CCRF-CEM = assay: as above; format: cell-based, human; details: 10 µM; leukemia CCRF-CEM
Protocol: as §1, §2, §3, §4, §5, §6, §7

RPMI-8226 = assay: as above; format: cell-based, human; details: 10 µM; leukemia RPMI-8226
Protocol: as §1, §2, §3, §4, §5, §6, §7

56 cell lines = assay: NCI 60 cell line single-dose growth inhibition, mean over the panel; format: cell-based; details: Homo sapiens, mean across 56 cell lines, read-out: mean growth inhibition (GI%)
Protocol: as §1, with “Materials). […]” for “Materials).”
as §6, with “The plates were washed five times with 1% acetic acid to eliminate any residual dye, followed by air-drying.” left out
The percentage of growth inhibition measurement depended on the absorbance values at the baseline time point (T0), as well as during the control growth phase (C) and the test growth phase (Ti). […]

NCI-H460 = assay: NCI 60 cell line single-dose growth inhibition (SRB); format: cell-based, human; details: 10 µM; lung carcinoma NCI-H460
Protocol: as §1, §2, §3, §4, §5, §6, §7

ACHN = assay: as above; format: cell-based, human; details: 10 µM; renal cancer cell line ACHN
Protocol: as §1, §2, §3, §4, §5, §6, §7

RFX 393 cells [2] = assay: Cell cycle investigation (PI flow cytometry); format: cell-based; details: GI50 concentration, 48 h; for %S: control 29.33; for %G0–G1: control 57.08
Protocol: RFX 393 cells underwent treatment with pyrazolopyrimidine derivatives 6s and 6t at their GI50 concentrations for 48 h.
RFX 393 cells underwent treatment with compounds 6s and 6t at their respective GI50 concentrations for 48 h. Following treatment, the cells were collected, dispersed in 0.5 mL of PBS, and subjected to centrifugation. They were then preserved in 70% (v/v) ethanol at 4 °C and subsequently rinsed with PBS, treated with RNase, and propidium iodide (PI) was used to stain the cells. Flow cytometric measurements were carried out employing a FACScalibur system (Becton Dickinson, Franklin Lakes, NJ, USA). The distributions of the cell cycle were subsequently calculated with the aid of software from Phoenix Flow Systems and Verity Software House (ModFit LT V6.0).

RFX 393 [3] = assay: In vitro cytotoxicity on renal carcinoma cell line (MTT assay); format: cell-based; details: renal carcinoma cell line RFX 393, read-out: RFX393 (IC50)
RFX 393 cells [4] = assay: Apoptosis and necrosis investigation (Annexin V/PI flow cytometry); format: cell-based; details: GI50 concentration, 48 h; for Apoptosis Late: control 0.15, % given in Figure 10 only; for Apoptosis Early: control 0.64, % given in Figure 10 only; for Necrosis: control 1.92, % given in Figure 10 only; for Apoptosis Total: control 2.71, % given in Figure 10 only
Protocol: To assess the influence of compounds 6s and 6t on cell death pathways, RFX 393 cells were subjected to the compounds for 48 h and then stained using Annexin V/PI. […] The comprehensive outcomes are provided in Table 4 and graphically illustrated in Figure 10.
RFX 393 cells underwent treatment with the GI50 concentrations of compounds 6s and 6t for 48 h. Following the treatment, the cells were collected, dispersed in 0.5 mL of PBS, and subjected to centrifugation. They were then preserved in 70% (v/v) ethanol at 4 °C and subsequently rinsed with PBS. The fixed cells were then centrifuged again, resuspended in PBS, centrifuged once more, and stained with PE Annexin V and propidium iodide (PI) according to the manufacturer’s instructions. The samples were subsequently analyzed using flow cytometry with a FACScalibur instrument (Becton Dickinson, Franklin Lakes, NJ, USA). Data on cell cycle distributions were processed with the aid of Phoenix Flow Systems and Verity Software House.

SNB-75 = assay: NCI 60 cell line single-dose growth inhibition (SRB); format: cell-based, human; details: 10 µM; central nervous system SNB-75 carcinoma cell line
Protocol: as §1, §2, §3, §4, §5, §6, §7

Trk = details: known inhibitor, in Figure 2; no reference given; cited from earlier work

- IC50 (CDK2/CyclinA2): 550 ± 40 nM
- IC50 (TrkA): 570 ± 20 nM
Structure (SMILES): COc1ccc(-c2ccnc3c(C#N)c(Nc4ccccc4)nn23)cc1OC [6d, 7-(3,4-Dimethoxyphenyl)-2-(anilinyl)pyrazolo[1,5-a]pyrimidine-3-carbonitrile]
- GI % (RFX 393 [1]): 84.17%
- GI % (HOP-62): 100.07%

Structure (SMILES): N#Cc1c(Nc2ccccc2)nn2c(-c3ccco3)ccnc12 [6i, 7-(Furan-2-yl)-2-(anilinyl)pyrazolo[1,5-a]pyrimidine-3-carbonitrile]
- GI % (HOP-92): 68.96%

- IC50 (CDK2/CyclinA2): 1580 ± 130 nM
- IC50 (TrkA): 1170 ± 90 nM
Structure (SMILES): CCOC(=O)c1c(Nc2ccccc2)nn2c(-c3ccccc3)ccnc12 [6k, Ethyl 7-Phenyl-2-(anilinyl)pyrazolo[1,5-a]pyrimidine-3-carboxylate]
- GI % (CCRF-CEM): 90.41%
- GI % (RPMI-8226): 69.31%

- IC50 (CDK2/CyclinA2): 1060 ± 90 nM
- IC50 (TrkA): 960 ± 40 nM
Structure (SMILES): CCOC(=O)c1c(Nc2ccccc2)nn2c(-c3ccc(OC)cc3)ccnc12 [6m, Ethyl 7-(4-Methoxyphenyl)-2-(anilinyl)pyrazolo[1,5-a]pyrimidine-3-carboxylate]
- GI % (RFX 393 [1]): 102.68%

- IC50 (CDK2/CyclinA2): 780 ± 40 nM
- IC50 (TrkA): 980 ± 40 nM
Structure (SMILES): CCOC(=O)c1c(Nc2ccccc2)nn2c(-c3ccc(OC)c(OC)c3)ccnc12 [6n, Ethyl 7-(3,4-Dimethoxyphenyl)-2-(anilinyl)pyrazolo[1,5-a]pyrimidine-3-carboxylate]
- inhibition at 10 µM (56 cell lines): 43.9%
- GI % (NCI-H460): 52.11%
- GI % (HOP-92): 94.73%

- IC50 (CDK2/CyclinA2): 760 ± 40 nM
- IC50 (TrkA): 1590 ± 110 nM
Structure (SMILES): CCOC(=O)c1c(Nc2ccccc2)nn2c(-c3ccc(Cl)cc3)ccnc12 [6o, Ethyl 7-(4-Chlorophenyl)-2-(anilinyl)pyrazolo[1,5-a]pyrimidine-3-carboxylate]
- GI % (RFX 393 [1]): 110.55%
- GI % (CCRF-CEM): 83.85%

- IC50 (CDK2/CyclinA2): 660 ± 40 nM
- IC50 (TrkA): 1340 ± 80 nM
Structure (SMILES): CCOC(=O)c1c(Nc2ccccc2)nn2c(-c3ccc(Br)cc3)ccnc12 [6p, Ethyl 7-(4-Bromophenyl)-2-(anilinyl)pyrazolo[1,5-a]pyrimidine-3-carboxylate]
- GI % (RFX 393 [1]): 112.34%
- GI % (ACHN): 66.02%
- GI % (NCI-H460): 66.12%
- GI % (HOP-92): 71.8%

Structure (SMILES): CCOC(=O)c1c(Nc2ccccc2)nn2c(-c3ccc([N+](=O)[O-])cc3)ccnc12 [6q, Ethyl 7-(4-Nitrophenyl)-2-(anilinyl)pyrazolo[1,5-a]pyrimidine-3-carboxylate]
- GI % (RFX 393 [1]): 52.08%

- IC50 (CDK2/CyclinA2): 200 ± 20 nM
- IC50 (TrkA): 970 ± 40 nM
Structure (SMILES): CCOC(=O)c1c(Nc2ccccc2)nn2c(-c3ccc4ccccc4c3)ccnc12 [6r, Ethyl 7-(Naphthalen-2-yl)-2-(anilinyl)pyrazolo[1,5-a]pyrimidine-3-carboxylate]
- GI % (RFX 393 [1]): 81.71%

Structure (SMILES): CCOC(=O)c1c(Nc2ccccc2)nn2c(-c3ccco3)ccnc12 [6s, Ethyl 7-(Furan-2-yl)-2-(anilinyl)pyrazolo[1,5-a]pyrimidine-3-carboxylate]
- %S (RFX 393 cells [2]): 11.49%
- %G0–G1 (RFX 393 cells [2]): 84.36%
- IC50 (RFX 393 [3]): 11700 ± 400 nM
- Apoptosis Late (RFX 393 cells [4]): 7.74%
- Apoptosis Early (RFX 393 cells [4]): 20.29%
- Necrosis (RFX 393 cells [4]): 4.04%
- Apoptosis Total (RFX 393 cells [4]): 32.07%

- IC50 (CDK2/CyclinA2): 90 ± 10 nM
Structure (SMILES): CCOC(=O)c1c(Nc2ccccc2)nn2c(-c3cccs3)ccnc12 [6t, Ethyl 2-(Anilinyl)-7-(thiophen-2-yl)pyrazolo[1,5-a]pyrimidine-3-carboxylate]
- %S (RFX 393 cells [2]): 15.26%
- %G0–G1 (RFX 393 cells [2]): 78.01%
- IC50 (RFX 393 [3]): 19900 ± 670 nM
- GI % (RFX 393 [1]): 106.08%
- Apoptosis Late (RFX 393 cells [4]): 9.49%
- Apoptosis Early (RFX 393 cells [4]): 11.15%
- Necrosis (RFX 393 cells [4]): 3.58%
- Apoptosis Total (RFX 393 cells [4]): 24.22%

- IC50 (CDK2/CyclinA2): 220 ± 20 nM
- IC50 (TrkA): 890 ± 30 nM
Structure (SMILES): CCOC(=O)c1c(Nc2ccccc2)nn2c(-c3ccco3)c(C#N)cnc12 [11g, Ethyl 6-Cyano-7-(furan-2-yl)-2-(anilinyl)pyrazolo[1,5-a]pyrimidine-3-carboxylate]
- GI % (SNB-75): 69.53%

Structure (SMILES): O=C(Nc1cnn2ccc(N3CCC[C@@H]3c3cc(F)ccc3F)nc12)N1CC[C@H](O)C1 [Larotrectinib]
- IC50 (Trk): 2 nM

Structure (SMILES): CN[C@@H]1C[C@H]2O[C@@](C)([C@@H]1OC)n1c3ccccc3c3c4c(c5c6ccccc6n2c5c31)C(=O)NC4 [Staurosporine, reference compound]
- IC50 (RFX 393 [3]): 70 nM
